The subject of the test is bacteria. Format: cell-based.

Regarding `NC[C@H]1O[C@H](O[C@H]2[C@H](O)[C@@H](O[C@H]3O[C@H](CO)[C@@H](O)[C@H](N)[C@H]3O)[C@H](N)C[C@@H]2N)[C@H](N)C[C@@H]1O` [tobramycin], the bacteria killing activity entry is recorded as “comparable activity”.

The values are drawn from patent US20240058453A1 (priority 2022, published 2024).
